22 compounds from patent publication US20250289810A1, “Compounds As NLRP3 Inflammasome Inhibitors And Their Use As Medicaments” (MAM-AGE S.R.L., priority 2022, published 2025) can be followed below.

The target of data set [1] is T1, NLRP3 inflammasome (Mus musculus, UniProt Q8R4B8).
T1 construct: bone marrow-derived macrophages (BMDMs) from wild type (WT) mice first primed with 1 μg/ml lipopolysaccharide (LPS); endogenous in cells; host or cells: primary BMDMs from wild type mice
Nature of the data set: Inhibition of NLRP3-mediated IL-1β release in BMDMs (LPS + Bz-ATP), ELISA. In kind it is cell-based. To be noted: BMDM; BMDMs from WT mice, LPS + BzATP, compound at 1 μM; read-out: Inhibitory rate of IL-1β release. For orientation: ELISA stands for enzyme-linked immunosorbent assay.

Data set [2] has as its target T2, NLRC4 inflammasome (Mus musculus, UniProt Q3UP24).
T2 construct: endogenous in cells; host or cells: mouse BMDM, LPS-primed, transfected with S. typhimurium flagellin
Nature of the data set: NLRC4 inflammasome activation in LPS-primed BMDM transfected with flagellin of S. typhimurium (IL-1β ELISA). In kind it is cell-based. To be noted: LPS 100 ng/ml 3 hours, compound 1 μm 30 minutes, flagellin 100 ng/ml 2 hours. The procedure:
The selectivity of compound 4 as an inhibitor of NLRP3 was then evaluated with respect to NLRC4 and absent in melanoma 2 (AIM2) inflammasomes. For activation of NLRC4 inflammasome, BMDM were treated with LPS (100 ng/ml) for 3 hours. Subsequently, the culture medium was removed and replaced with a serum-free medium containing compound 4 (1 μm for 30 minutes), finally the cells were transfected with flagellin (100 ng/ml) by S. typhimurium for 2 hours. The supernatant was tested by ELISA. […] The effect of the same compounds was examined on the non-NLR AIM2 inflammasome by transfecting BMDM with the dsDNS analogue Poly (dA:dT).
The selectivity of compounds 6c and 10 of Formula (III) as inhibitors of NLRP3 was then evaluated with respect to NLRC4 inflammasome. For activation of NLRC4 inflammasome, BMDM were treated with LPS (100 ng/ml) for 3 hours. Subsequently the culture medium was removed and replaced with a serum-free medium containing […] (1 μm for 30 minutes), finally the cells were transfected with flagellin (100 ng/ml) by S. typhimurium for 2 hours. The supernatant was tested by ELISA.

Data set [3] concerns THP-1 cells. Nature of the data set: RealTime-Glo MT Cell Viability assay on THP-1 cells. In kind it is cell-based, human. The settings on record: 1 μM, 48 hours. The procedure:
(§1) Cell viability was evaluated on THP-1 cells using realtime-Glo” MT Cell Viability Assay (Promega Italia, MI). Briefly, the cells were seeded in a 96 multiwell (10×10^4 cells/well), treated with the selected compound of Formula (II), and incubated for 48 hours. After treatment, the cells were incubated for 10 minutes in the incubator with the realtime-Glo” reagent following protocol. The luminescence was measured every 12 hours in the Glomax Multi Detection System Promega. The luminescence signal correlates with the number of metabolically active cells.
as §1, with “compound,” for “compound of Formula (II),”, “cells. The results represent the mean luminescence values (RLU)±SEM.” for “cells.”

T1 sequence (Q8R4B8 whole entry): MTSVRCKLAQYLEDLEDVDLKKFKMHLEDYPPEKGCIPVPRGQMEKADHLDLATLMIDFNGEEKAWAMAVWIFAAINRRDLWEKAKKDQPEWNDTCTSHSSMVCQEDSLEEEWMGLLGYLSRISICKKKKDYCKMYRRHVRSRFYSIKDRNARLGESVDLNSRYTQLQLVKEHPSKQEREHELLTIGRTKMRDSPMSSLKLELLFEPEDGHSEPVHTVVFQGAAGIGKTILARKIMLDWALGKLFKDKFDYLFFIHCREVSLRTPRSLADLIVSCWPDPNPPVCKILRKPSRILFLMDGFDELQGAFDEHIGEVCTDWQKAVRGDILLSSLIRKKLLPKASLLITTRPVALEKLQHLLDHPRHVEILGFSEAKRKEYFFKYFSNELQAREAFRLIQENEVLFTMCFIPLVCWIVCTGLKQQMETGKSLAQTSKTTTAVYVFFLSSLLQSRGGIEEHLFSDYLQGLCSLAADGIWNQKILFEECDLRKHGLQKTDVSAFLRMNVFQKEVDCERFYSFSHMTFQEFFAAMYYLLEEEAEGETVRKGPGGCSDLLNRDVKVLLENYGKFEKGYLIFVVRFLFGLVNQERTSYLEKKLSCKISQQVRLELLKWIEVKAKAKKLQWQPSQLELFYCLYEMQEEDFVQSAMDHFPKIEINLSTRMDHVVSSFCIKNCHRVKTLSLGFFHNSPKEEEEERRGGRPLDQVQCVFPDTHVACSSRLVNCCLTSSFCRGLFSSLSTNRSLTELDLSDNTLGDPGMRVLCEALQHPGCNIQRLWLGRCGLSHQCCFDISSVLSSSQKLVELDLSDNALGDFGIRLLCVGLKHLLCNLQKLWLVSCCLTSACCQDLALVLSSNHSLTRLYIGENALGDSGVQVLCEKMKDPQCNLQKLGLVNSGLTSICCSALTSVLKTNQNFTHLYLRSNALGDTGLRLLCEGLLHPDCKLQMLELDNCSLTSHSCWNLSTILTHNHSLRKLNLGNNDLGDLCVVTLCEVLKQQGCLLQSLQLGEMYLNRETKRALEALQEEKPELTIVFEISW
T2 sequence (Q3UP24 whole entry): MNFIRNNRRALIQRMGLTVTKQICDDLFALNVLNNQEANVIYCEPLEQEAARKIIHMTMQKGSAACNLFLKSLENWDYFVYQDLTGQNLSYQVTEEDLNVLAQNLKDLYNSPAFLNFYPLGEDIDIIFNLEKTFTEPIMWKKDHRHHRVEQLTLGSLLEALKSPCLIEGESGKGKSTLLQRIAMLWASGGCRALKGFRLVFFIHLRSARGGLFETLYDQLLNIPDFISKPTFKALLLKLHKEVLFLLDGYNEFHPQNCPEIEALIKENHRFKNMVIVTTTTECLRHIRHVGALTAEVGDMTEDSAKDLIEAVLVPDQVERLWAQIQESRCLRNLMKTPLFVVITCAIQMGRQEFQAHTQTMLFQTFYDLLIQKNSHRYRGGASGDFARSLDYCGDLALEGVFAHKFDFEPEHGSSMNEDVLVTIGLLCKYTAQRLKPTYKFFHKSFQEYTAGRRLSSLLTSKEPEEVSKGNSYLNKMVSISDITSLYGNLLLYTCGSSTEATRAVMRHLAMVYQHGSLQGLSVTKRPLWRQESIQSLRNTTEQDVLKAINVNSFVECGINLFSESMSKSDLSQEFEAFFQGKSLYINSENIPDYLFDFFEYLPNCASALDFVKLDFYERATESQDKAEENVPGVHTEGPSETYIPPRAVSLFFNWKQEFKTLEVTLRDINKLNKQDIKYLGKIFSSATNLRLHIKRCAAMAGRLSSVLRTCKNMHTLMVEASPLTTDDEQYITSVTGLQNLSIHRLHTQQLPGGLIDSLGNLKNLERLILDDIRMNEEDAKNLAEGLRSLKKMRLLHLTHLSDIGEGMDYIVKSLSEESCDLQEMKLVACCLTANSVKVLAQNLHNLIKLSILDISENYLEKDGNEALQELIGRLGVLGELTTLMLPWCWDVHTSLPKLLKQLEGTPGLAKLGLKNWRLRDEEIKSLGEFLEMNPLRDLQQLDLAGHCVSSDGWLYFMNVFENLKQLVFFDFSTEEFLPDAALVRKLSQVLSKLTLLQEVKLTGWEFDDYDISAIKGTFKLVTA

Turning to `O=C(Nc1c2c(cc3c1CCC3)CCC2)C1CCCN1S(=O)(=O)c1ccc([N+](=O)[O-])cc1` (stereo not drawn) [Compound 3a of Formula (IV), N-(1,2,3,5,6,7-hexahydro-s-indacen-4-yl)-1-((4-nitrophenyl)sulfonyl)pyrrolidine-2-carboxamide], the inhibition at 1 µM in data set [1] turned out to be 25.7%. Turning to `O=C(Nc1c2c(cc3c1CCC3)CCC2)C1CCCCN1S(=O)(=O)c1ccc([N+](=O)[O-])cc1` (stereo not drawn) [Compound 3b of Formula (IV), N-(1,2,3,5,6,7-hexahydro-s-indacen-4-yl)-1-((4-nitrophenyl)sulfonyl)piperidine-2-carboxamide], the inhibition at 1 µM in data set [1] worked out at 52.4%.

Take `Nc1ccc(S(=O)(=O)N2CCCC2C(=O)Nc2c3c(cc4c2CCC4)CCC3)cc1` (stereo not drawn) [Compound 4a of Formula (IV), 1-((4-aminophenyl)sulfonyl)-N-(1,2,3,5,6,7-hexahydro-s-indacen-4-yl)pyrrolidine-2-carboxamide]: the inhibition at 1 µM in data set [1] was found to be 41.6%. The same measure, in the same setting: with `Nc1ccc(S(=O)(=O)N2CCCCC2C(=O)Nc2c3c(cc4c2CCC4)CCC3)cc1` (stereo not drawn) [Compound 4b of Formula (IV), 1-((4-aminophenyl)sulfonyl)-N-(1,2,3,5,6,7-hexahydro-s-indacen-4-yl)piperidine-2-carboxamide] the figure was 25.4%. With `CC(C)[C@H](NS(=O)(=O)c1ccc([N+](=O)[O-])cc1)C(=O)Nc1c2c(cc3c1CCC3)CCC2` [Compound 6c of Formula (III), (S)—N-(1,2,3,5,6,7-hexahydro-s-indacen-4-yl)-3-methyl-2-((4-nitrophenyl)sulfonamido)butanamide], the “Effect on activation of NLRC4 inflammasome triggered by flagellin S. typhimurium” value in data set [2] is recorded as “no effect”. The “Cytotoxicity / cell viability of THP-1 cells” value in data set [3] is “no cytotoxicity”. As for `CC(C)C[C@H](NS(=O)(=O)c1ccc([N+](=O)[O-])cc1)C(=O)Nc1c2c(cc3c1CCC3)CCC2` [Compound 6e of Formula (III), (S)—N-(1,2,3,5,6,7-hexahydro-s-indacen-4-yl)-4-methyl-2-((4-nitrophenyl)sulfonamido)pentanamide], in data set [1], the inhibition at 1 µM was found to be 53.9%. For `O=C(Nc1c2c(cc3c1CCC3)CCC2)[C@@H](NS(=O)(=O)c1ccc([N+](=O)[O-])cc1)c1ccccc1` [Compound 6f of Formula (III), (S)—N-(1,2,3,5,6,7-hexahydro-s-indacen-4-yl)-2-((4-nitrophenyl)sulfonamido)-2-phenylacetamide], the inhibition at 1 µM in data set [1] is 44.8%. On the same count and under the same terms, with `O=C(Nc1c2c(cc3c1CCC3)CCC2)[C@H](Cc1ccccc1)NS(=O)(=O)c1ccc([N+](=O)[O-])cc1` [Compound 6g of Formula (III), (S)—N-(1,2,3,5,6,7-hexahydro-s-indacen-4-yl)-2-((4-nitrophenyl)sulfonamido)-3-phenylpropanamide] the figure was 19.8%; with `O=C(Nc1c2c(cc3c1CCC3)CCC2)[C@@H](Cc1ccccc1)NS(=O)(=O)c1ccc([N+](=O)[O-])cc1` [Compound 6h of Formula (III), (R)—N-(1,2,3,5,6,7-hexahydro-s-indacen-4-yl)-2-((4-nitrophenyl)sulfonamido)-3-phenylpropanamide], 49.5%; with `O=C(CCNS(=O)(=O)c1ccc([N+](=O)[O-])cc1)Nc1c2c(cc3c1CCC3)CCC2` [Compound 6k of Formula (III), N-(1,2,3,5,6,7-hexahydro-s-indacen-4-yl)-3-((4-nitrophenyl)sulfonamido)propanamide], 36.5%. In the case of `C[C@H](NS(=O)(=O)c1ccc(N)cc1)C(=O)Nc1c2c(cc3c1CCC3)CCC2` [Compound 7b of Formula (III), (S)-2-((4-aminophenyl)sulfonamido)-N-(1,2,3,5,6,7-hexahydro-s-indacen-4-yl)propanamide], the inhibition at 1 µM in data set [1] worked out at 17.3%.

With `CC(C)[C@H](NS(=O)(=O)c1ccc(N)cc1)C(=O)Nc1c2c(cc3c1CCC3)CCC2` [Compound 7c of Formula (III), (S)-2-((4-aminophenyl)sulfonamido)-N-(1,2,3,5,6,7-hexahydro-s-indacen-4-yl)-3-methylbutanamide], the inhibition at 1 µM in data set [1] worked out at 50.2%.

With `CC(C)[C@@H](NS(=O)(=O)c1ccc(N)cc1)C(=O)Nc1c2c(cc3c1CCC3)CCC2` [Compound 7d of Formula (III), (R)-2-((4-aminophenyl)sulfonamido)-N-(1,2,3,5,6,7-hexahydro-s-indacen-4-yl)-3-methylbutanamide], the inhibition at 1 µM in data set [1] was found to be 8.4%.

Regarding `CC(C)C[C@H](NS(=O)(=O)c1ccc(N)cc1)C(=O)Nc1c2c(cc3c1CCC3)CCC2` [Compound 7e of Formula (III), (S)-2-((4-aminophenyl)sulfonamido)-N-(1,2,3,5,6,7-hexahydro-s-indacen-4-yl)-4-methylpentanamide], in data set [1], the inhibition at 1 µM stood at 31.5%. On to `Nc1ccc(S(=O)(=O)N[C@H](C(=O)Nc2c3c(cc4c2CCC4)CCC3)c2ccccc2)cc1` [Compound 7f of Formula (III), (S)-2-((4-aminophenyl)sulfonamido)-N-(1,2,3,5,6,7-hexahydro-s-indacen-4-yl)-2-phenylacetamide], for which, in data set [1], the inhibition at 1 µM amounted to 16.1%.

`Nc1ccc(S(=O)(=O)N[C@@H](Cc2ccccc2)C(=O)Nc2c3c(cc4c2CCC4)CCC3)cc1` [Compound 7g of Formula (III), (S)-2-((4-aminophenyl)sulfonamido)-N-(1,2,3,5,6,7-hexahydro-s-indacen-4-yl)-3-phenylpropanamide]: the inhibition at 1 µM in data set [1] came out at 38%. Turning to `Nc1ccc(S(=O)(=O)N[C@H](Cc2ccccc2)C(=O)Nc2c3c(cc4c2CCC4)CCC3)cc1` [Compound 7h of Formula (III), (R)-2-((4-aminophenyl)sulfonamido)-N-(1,2,3,5,6,7-hexahydro-s-indacen-4-yl)-3-phenylpropanamide], the inhibition at 1 µM in data set [1] stood at 46.4%. As to `Nc1ccc(S(=O)(=O)NCCC(=O)Nc2c3c(cc4c2CCC4)CCC3)cc1` [Compound 7k of Formula (III), 3-((4-aminophenyl)sulfonamido)-N-(1,2,3,5,6,7-hexahydro-s-indacen-4-yl)propanamide], in data set [1], the inhibition at 1 µM stood at 22.3%. Still for that read-out and setting: the value for `O=C(Nc1c2c(cc3c1CCC3)CCC2)[C@H](Cc1ccc(O)cc1)NS(=O)(=O)c1ccc([N+](=O)[O-])cc1` [Compound 8 of Formula (III), (S)—N-(1,2,3,5,6,7-hexahydro-s-indacen-4-yl)-3-(4-hydroxyphenyl)-2-((4-nitrophenyl)sulfonamido)propanamide] was 34.7%; that for `NCCCC[C@H](NS(=O)(=O)c1ccc([N+](=O)[O-])cc1)C(=O)Nc1c2c(cc3c1CCC3)CCC2` [Compound 9 of Formula (III), (S)-6-amino-N-(1,2,3,5,6,7-hexahydro-s-indacen-4-yl)-2-((4-nitrophenyl)sulfonamido)hexanamide] was 47.5%. On to `Nc1ccc(S(=O)(=O)N[C@@H](Cc2ccc(O)cc2)C(=O)Nc2c3c(cc4c2CCC4)CCC3)cc1` [Compound 10 of Formula (III), (S)-2-((4-aminophenyl)sulfonamido)-N-(1,2,3,5,6,7-hexahydro-s-indacen-4-yl)-3-(4-hydroxyphenyl)propanamide], for which, in data set [2], the “Effect on activation of NLRC4 inflammasome triggered by flagellin S. typhimurium” value was “no effect”. For the same compound, the “Cytotoxicity / cell viability of THP-1 cells” value in data set [3] is “no cytotoxicity”. Consider `NCCCC[C@H](NS(=O)(=O)c1ccc(N)cc1)C(=O)Nc1c2c(cc3c1CCC3)CCC2` [Compound 11 of Formula (III), (S)-6-amino-2-((4-aminophenyl)sulfonamido)-N-(1,2,3,5,6,7-hexahydro-s-indacen-4-yl)hexanamide], for which, in data set [1], the inhibition at 1 µM worked out at 28.4%.
